# PMC11758220, “Identification of a Privileged Scaffold for Inhibition of Sterol Transport Proteins through the Synthesis and Ring Distortion of Diverse, Pseudo-Natural Products” (ACS Central Science, 2025)
# Experiments:
# STARD5 = target: T1, STARD5 (Homo sapiens, UniProt Q9NSY2); assay: Differential scanning fluorimetry (DSF), STARD5; assay type: binding; settings: for ΔTm at 10 µM / STARD5 (DSF) ΔTm: single dose, Dose = 10 µM; for Kd: apparent Kd, mean of three experiments run in technical duplicates, read-out: STARD5 Kd,app (DSF); for STARD5 (DSF) ΔTmmax: maximal thermal shift
# T1 construct: STARD5(6-213); host or cells: E. coli BL21(DE3)
# T1 sequence (Q9NSY2 6-213): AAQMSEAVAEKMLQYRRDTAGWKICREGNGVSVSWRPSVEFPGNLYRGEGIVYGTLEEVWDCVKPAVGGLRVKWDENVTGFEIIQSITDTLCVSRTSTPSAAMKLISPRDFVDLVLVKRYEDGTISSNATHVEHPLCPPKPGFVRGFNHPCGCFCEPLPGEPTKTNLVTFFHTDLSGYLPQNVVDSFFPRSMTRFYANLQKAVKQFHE
# Description: (§1) Protein expression constructs
# (§2) Human ASTER domains of Aster-A(359-547), -B(364-552) and -C(318-504) were subcloned into a pGEX-6p-2rbs vector, thus introducing the cloning artifact ‘GPLGS’.3 The pGEX-6P-1-GST-OSBP(377- […]
# (§3) a gift from James H. Hurley (University of California).4 The pHIS_2His6_Thrombin_STARD4(2-205;C75S) plasmid was a gift from Young Jun Im (Chonnam National University).5 STARD5A was a gift from Nicola Burgess-Brown (Addgene plasmid #42392; http://n2t.net/addgene:42392; […]
# (§4) Protein expression and purification […]
# (§5) vectors including an N-terminal PreScission-cleavable glutathione S-transferase (GST)-tag were expressed in Escherichia coli (E. coli) OverExpress C41 in Terrific Broth (TB) medium for 16 h at 18 °C after the induction with 0.1 mM isopropyl β-D-1-thiogalactopyranoside (IPTG). Cells were harvested at 3500 × g for 15 minutes and lysed by sonication in buffer containing 50 mM HEPES pH 7.5, 300 mM NaCl, 10 %v/v glycerol, 5 mM dithiothreitol (DTT), 0.1 %v/v Triton X-100 and protease inhibitor mix HP plus (Serva). The lysate was purified by affinity chromatography on a GSTrap FF column (Cytiva) using an ÄKTA Start (Cytiva) in buffer containing 50 mM HEPES pH 7.5, 300 mM NaCl, 10 %v/v glycerol, 5 mM DTT and 0.01 %v/v Triton X-100. The GST-tag was cleaved overnight on the column at 4 °C. The Aster sterol binding domains were further purified by size-exclusion chromatography (SEC) on a HiLoad 16/600 Superdex 75 pg (Cytiva) in buffer containing 20 mM HEPES pH 7.5, 300 mM NaCl, 10 %v/v […]
# (§6) STARD5(6-213) harboring an N-terminal His6-Tag were expressed in E. coli BL21(DE3) in Luria-Bertani Broth (LB) medium for approximately 16 h at 18 °C after induction with 0.15 mM IPTG. Cells were harvested at 3500 × g for 15 minutes and lysed by sonication in buffer containing 50 mM HEPES pH 7.5, 150 mM NaCl, 5 %v/v glycerol, 5 mM DTT, 0.1 %v/v Triton X -100 and ethylenediaminetetraacetic acid (EDTA)-free protease inhibitor cocktail (Sigma-Aldrich). The cleared lysate was purified by affinity chromatography on a Ni-NTA Superflow Cartridge (Qiagen) using an ÄKTA Start (Cytiva) in buffer containing 50 mM HEPES pH 7.5, 150 mM NaCl, 5 %v/v glycerol, 5 mM DTT. START domains were eluted by using elution buffer containing 50 mM HEPES pH 7.5, 150 mM NaCl, 5 %v/v glycerol, 5 mM DTT and 500 mM imidazole. Proteins were further purified by SEC on a HiLoad 16/600 Superdex 75 pg (Cytiva) in buffer containing 20 mM HEPES pH 7.5, 150 mM NaCl, 5 %v/v glycerol and 2 mM DTT.
# (§7) The ORP domain of human OSBP(377-807) in the pGEX-6p-1 vector with an N-terminal PreScission-cleavable GST-tag was expressed in E. coli OverExpress C41 in LB medium for 16 h at 18 °C after induction with 0.1 mM IPTG. Cells were harvested at 3500 × g for 15 minutes and lysed by sonication in buffer containing 20 mM HEPES pH 7.5, 300 mM NaCl, 10 %v/v glycerol, 5 mM DTT, 0.1 %v/v Triton X-100 and EDTA-free protease inhibitor cocktail (Sigma-Aldrich). The cleared lysate was purified by affinity chromatography on a GSTrap HF column (Cytiva) using an ÄKTA Start (Cytiva) in buffer containing 20 mM HEPES pH 7.5, 300 mM NaCl, 10 %v/v glycerol, 5 mM DTT. OSBP(377 -807) was eluted by using elution buffer containing 20 mM HEPES pH 7.5, 300 mM NaCl, 10 %v/v glycerol, 5 mM DTT and 10 mM reduced glutathione. Proteins were further purified by SEC on a HiLoad 16/600 Superdex 75 pg (Cytiva) using an ÄKTA Explorer (Cytiva) in buffer containing 20 mM HEPES pH 7.5, 150 mM NaCl, 10 %v/v glycerol and 2 mM DTT.
# (§8) The ORP domains of human ORP1(534-950) in pET24b(+) and ORP2(49-480) in the pET24b(+) vector including an N-terminal His6-Tag were expressed in E. coli BL21(DE3) in TB medium for approximately 16 h at 18 °C after induction with 0.1 mM IPTG. Cells were collected at 3500 × g for 15 minutes and lysed by sonification in buffer containing 10 mM Tris-HCl pH 8, 300 mM NaCl, 5 % glycerol, 2 mM DTT, 0.1 % Triton X-100 and EDTA-free protease inhibitor cocktail (Sigma-Aldrich). The cleared […]
# OSBP = target: T2, OSBP (Homo sapiens, UniProt P22059); assay: Fluorescence polarisation (FP) competition with NBD-cholesterol, OSBP; assay type: binding; settings: single dose; for OSBP (FP) inhibition: Dose = 10 µM
# T2 construct: OSBP(377-807); host or cells: E. coli OverExpress C41
# T2 sequence (P22059 377-807): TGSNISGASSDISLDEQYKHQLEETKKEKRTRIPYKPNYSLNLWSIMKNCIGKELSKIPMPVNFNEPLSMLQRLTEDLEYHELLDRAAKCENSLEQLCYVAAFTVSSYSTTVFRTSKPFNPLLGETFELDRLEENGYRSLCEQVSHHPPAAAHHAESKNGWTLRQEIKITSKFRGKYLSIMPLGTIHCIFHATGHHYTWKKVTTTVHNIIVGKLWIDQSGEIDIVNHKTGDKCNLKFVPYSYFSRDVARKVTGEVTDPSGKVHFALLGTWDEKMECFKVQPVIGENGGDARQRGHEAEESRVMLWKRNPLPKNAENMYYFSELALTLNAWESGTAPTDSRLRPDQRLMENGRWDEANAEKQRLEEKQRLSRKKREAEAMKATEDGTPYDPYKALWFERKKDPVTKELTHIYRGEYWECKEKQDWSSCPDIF
# Description: as §1, §2, §3, §4, §5, §6, §7, §8
SMILES,ΔTm at 10 µM (STARD5) [°C],inhibition at 10 µM (OSBP) [%],Kd (STARD5) [µM],STARD5 (DSF) ΔTmmax (STARD5) [°C],STARD5 (DSF) ΔTm (STARD5) [°C],"ΔTm at 100 µM (STARD5; at 100 μM, read-out: STARD5 ΔTm^max) [°C]",OSBP (FP) inhibition (OSBP) [%]
C[C@]12CC[C@@H]3C[C@H]1CC[C@@]21C(=Nc2ccc(Br)cc21)O3 (racemic) [Compound 15b],0.5,7,–,–,–,–,–
CC12CCC3CC1CCC21C(=Nc2ccc(N4CCOCC4)cc21)O3 (racemic) [Compound 19a],1.8,3,> 30,3.7,–,–,–
"CC12CCC3CC1CCC21C(=Nc2ccc(Br)cc21)O3 (single isomer, unassigned; (+)) [(+)-15b]",-0.0628,13.1,> 100,1.1,–,–,–
"CC12CCC3CC1CCC21C(=Nc2ccc(N4CCOCC4)cc21)O3 (single isomer, unassigned; (+)) [(+)-19a]",–,3.4,> 100,1.7,0.32,–,–
"CC12CCC3CC1CCC21C(=Nc2ccc(N4CCOCC4)cc21)O3 (single isomer, unassigned; (-)) [(−)-19a]",–,–,> 30,5.2,3.3,4.7,6.2
C[C@@]12CC[C@H]3C[C@@H]1CC[C@]21C(=Nc2ccc(Br)cc21)O3 [(−)-15b],0.4,2.8,> 100,1.3,–,–,–
"CC(C)Oc1ccc(C(=O)Nc2nc3c(s2)CN(C(=O)OC(C)(C)C)CC3)cc1 [Autogramin-2, reference compound]",–,–,> 30,–,0.211,–,9.0
Cc1c2c(nc3ccccc13)[C@@]1(C)CC[C@@H](O)C[C@H]1CC2 [Compound 2a],0.4,10,–,–,–,–,–
C[C@]12CC[C@@H](O)C[C@H]1CCc1c2nc2ccccc2c1-c1ccccc1 [Compound 2b],–,–,–,–,0.0879,–,-12.0
Cc1c2c(nc3cc(Br)ccc13)[C@@]1(C)CC[C@@H](O)C[C@H]1CC2 [Compound 2c],–,–,–,–,0.543,–,-4.0
C[C@]12CC[C@@H](O)C[C@H]1CCc1c2nc2ccccc2c1-c1ccc(F)cc1 [Compound 2d],0.0936,0,–,–,–,–,–
C[C@]12CC[C@@H](O)C[C@H]1CCc1c2nc2ccc(Cl)cc2c1-c1ccccc1 [Compound 2e],–,–,–,–,0.221,–,10.6
C[C@]12CC[C@@H](O)C[C@H]1CCc1c2[nH]c2ncccc12 [Compound 3],0.149,2.5,–,–,–,–,–
C[C@]12CC[C@@H](O)C[C@H]1CCC[C@]21Nc2ccccc2-n2cccc21 [Compound 4],0.138,21,–,–,0.276,–,10.0
C[C@]12CC[C@@H](O)C[C@H]1CCC[C@]21NC(=O)c2ccccc2N1 [Compound 5a],0.0253,9.1,–,–,0.0773,–,15.5
C[C@]12CC[C@@H](O)C[C@H]1CCC[C@]21NC(=O)c2ccc(F)cc2N1 [Compound 5b],-0.128,8.2,–,–,0.158,–,24.6
COc1ccc2c(c1)C(=O)N[C@]1(CCC[C@@H]3C[C@H](O)CC[C@@]31C)N2 [Compound 5c],0.117,18.2,–,–,0.0259,–,6.4
C[C@]12CC[C@@H](O)C[C@H]1CCc1nc3ccccc3nc12 [Compound 7a],0.5,4,–,–,–,–,–
Cc1cc2nc3c(nc2cc1C)[C@@]1(C)CC[C@@H](O)C[C@H]1CC3 [Compound 7b],0.328,24,–,–,–,–,–
C[C@]12CC[C@@H](O)C[C@H]1CCc1nc3cc(F)c(F)cc3nc12 [Compound 7c],–,–,–,–,0.3,–,8.0
C[C@]12CC[C@@H](O)C[C@H]1CCc1nc3cc(Cl)c(Cl)cc3nc12 [Compound 7d],–,–,–,–,-0.24,–,-1.0
C[C@]12CC[C@@H](O)C[C@H]1CCc1nc3cc(Br)c(Br)cc3nc12 [Compound 7e],–,–,–,–,0.245,–,3.0
C[C@]12CC[C@@H](O)C[C@H]1CCc1sc(N)nc12 [Compound 8a],0.0867,18.6,–,–,–,–,–
Cc1nc2c(s1)CC[C@@H]1C[C@H](O)CC[C@]21C [Compound 8b],–,–,–,–,0.175,–,-1.3
C[C@]12CC[C@@H](O)C[C@H]1CCc1sc(-c3cccnc3)nc12 [Compound 8c],–,–,–,–,0.15,–,17.3
COc1ccc(-c2nc3c(s2)CC[C@@H]2C[C@H](O)CC[C@]32C)cc1 [Compound 8d],0.146,2.6,–,–,–,–,–
C[C@]12CC[C@@H](O)C[C@H]1CCc1sc(-c3ccc(F)cc3)nc12 [Compound 8e],–,–,–,–,0.216,–,1.3
C[C@]12CC[C@@H](O)C[C@H]1CCc1[nH]c(-c3ccccc3)nc12 [Compound 9],0.168,5,–,–,–,–,–
C[C@]12CC[C@@H](O)C[C@H]1CCc1c2[nH]c2ccccc12 [Compound 10a],–,–,–,–,0.373,–,1.3
C[C@]12CC[C@@H](O)C[C@H]1CCc1c2[nH]c2ccc(Br)cc12 [Compound 10b],–,–,–,–,0.131,–,-12.0
